Laboratory results as given in ChEMBL document CHEMBL1201862, “PubChem BioAssay data set” (2004).
The source made the active and inactive calls.

Tests used:
[1] = molecular target: Heat shock protein HSP 90-alpha (Homo sapiens, UniProt P07900); format: functional, organism-based
[2] = molecular target: Eukaryotic elongation factor 2 kinase (Homo sapiens, UniProt O00418); format: functional
SRSF protein kinase 1 = SRSF protein kinase 1 (Homo sapiens, UniProt Q96SB4); format: functional;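 also: measured as one member of a kinome-wide kinase profiling panel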
[3] = molecular target: Dual specificity tyrosine-phosphorylation-regulated kinase 3 (Homo sapiens, UniProt O43781); format: functional;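 also: measured as one member of a broad kinase panel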
Dual specificity tyrosine-phosphorylation-regulated kinase 3, sequence (O43781 whole entry): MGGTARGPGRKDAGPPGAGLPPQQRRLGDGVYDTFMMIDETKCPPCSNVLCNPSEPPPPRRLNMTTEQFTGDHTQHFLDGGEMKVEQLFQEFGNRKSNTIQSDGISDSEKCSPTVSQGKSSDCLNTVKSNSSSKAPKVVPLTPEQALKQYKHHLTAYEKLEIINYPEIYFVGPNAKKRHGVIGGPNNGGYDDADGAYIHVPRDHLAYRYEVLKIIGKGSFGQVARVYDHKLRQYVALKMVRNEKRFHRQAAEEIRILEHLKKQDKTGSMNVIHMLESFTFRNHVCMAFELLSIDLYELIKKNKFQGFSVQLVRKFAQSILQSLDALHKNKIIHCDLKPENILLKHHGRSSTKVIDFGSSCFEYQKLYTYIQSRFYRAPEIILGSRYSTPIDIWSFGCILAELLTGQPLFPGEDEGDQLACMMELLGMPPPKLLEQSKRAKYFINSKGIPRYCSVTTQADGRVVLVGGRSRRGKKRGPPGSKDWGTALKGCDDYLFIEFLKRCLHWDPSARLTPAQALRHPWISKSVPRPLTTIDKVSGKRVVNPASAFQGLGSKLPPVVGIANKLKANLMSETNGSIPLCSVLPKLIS

[4] = molecular target: Tyrosine-protein kinase receptor UFO (Homo sapiens, UniProt P30530); format: functional
Tyrosine-protein kinase receptor UFO, sequence (P30530 whole entry): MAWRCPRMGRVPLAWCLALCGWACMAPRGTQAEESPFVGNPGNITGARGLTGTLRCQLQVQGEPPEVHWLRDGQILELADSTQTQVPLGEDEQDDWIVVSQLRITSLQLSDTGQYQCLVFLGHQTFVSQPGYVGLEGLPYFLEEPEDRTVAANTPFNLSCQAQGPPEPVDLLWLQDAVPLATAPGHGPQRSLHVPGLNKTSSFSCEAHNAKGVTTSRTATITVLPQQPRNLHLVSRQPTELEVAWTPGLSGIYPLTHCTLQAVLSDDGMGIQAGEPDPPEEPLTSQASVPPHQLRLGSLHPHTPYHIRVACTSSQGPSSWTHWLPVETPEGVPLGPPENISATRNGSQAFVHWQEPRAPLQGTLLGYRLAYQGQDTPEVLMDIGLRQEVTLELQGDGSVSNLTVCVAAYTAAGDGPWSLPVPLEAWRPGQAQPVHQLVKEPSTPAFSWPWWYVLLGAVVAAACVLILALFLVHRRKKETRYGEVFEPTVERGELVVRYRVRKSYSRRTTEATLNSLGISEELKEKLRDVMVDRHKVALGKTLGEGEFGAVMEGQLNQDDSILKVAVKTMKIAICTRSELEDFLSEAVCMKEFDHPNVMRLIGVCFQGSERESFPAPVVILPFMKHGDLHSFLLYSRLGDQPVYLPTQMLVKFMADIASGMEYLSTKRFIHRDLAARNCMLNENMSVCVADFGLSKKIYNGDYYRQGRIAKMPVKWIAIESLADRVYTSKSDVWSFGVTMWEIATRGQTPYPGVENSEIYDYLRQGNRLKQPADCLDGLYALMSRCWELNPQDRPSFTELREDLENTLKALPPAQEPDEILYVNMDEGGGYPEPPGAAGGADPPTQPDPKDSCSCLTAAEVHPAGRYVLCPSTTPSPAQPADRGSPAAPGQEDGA

[5] = molecular target: Serine/threonine-protein kinase TAO1 (Homo sapiens, UniProt Q7L7X3); format: functional
[6] = molecular target: Interleukin-1 receptor-associated kinase 1 (Homo sapiens, UniProt P51617); format: functional;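 also: IRAK1 tested as one member of a kinome panel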
[7] = molecular target: Protein kinase C gamma type (Homo sapiens, UniProt P05129); format: functional
[8] = molecular target: Cell division cycle 7-related protein kinase (Homo sapiens, UniProt O00311); format: functional;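 also: value obtained from a kinome-wide kinase panel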
Cell division cycle 7-related protein kinase, sequence (O00311 whole entry): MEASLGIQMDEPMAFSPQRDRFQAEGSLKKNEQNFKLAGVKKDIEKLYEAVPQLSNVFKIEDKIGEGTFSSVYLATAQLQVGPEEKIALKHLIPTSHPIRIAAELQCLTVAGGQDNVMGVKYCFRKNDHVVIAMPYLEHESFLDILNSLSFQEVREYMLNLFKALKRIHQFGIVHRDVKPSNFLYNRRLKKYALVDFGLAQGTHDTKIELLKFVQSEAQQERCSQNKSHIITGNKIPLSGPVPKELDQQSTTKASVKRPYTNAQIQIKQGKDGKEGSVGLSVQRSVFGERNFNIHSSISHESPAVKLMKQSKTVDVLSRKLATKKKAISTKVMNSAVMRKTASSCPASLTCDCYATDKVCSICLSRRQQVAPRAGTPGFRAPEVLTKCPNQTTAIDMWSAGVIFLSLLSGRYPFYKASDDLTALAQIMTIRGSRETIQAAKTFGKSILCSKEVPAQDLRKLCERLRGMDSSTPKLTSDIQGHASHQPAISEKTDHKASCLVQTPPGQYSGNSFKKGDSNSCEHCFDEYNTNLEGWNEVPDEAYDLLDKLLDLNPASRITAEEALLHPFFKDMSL

[9] = molecular target: Mitogen-activated protein kinase 9 (Homo sapiens, UniProt P45984); format: functional;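 also: value from a kinome panel profiling assay, MAPK9 panel entry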
[10] = molecular target: Tyrosine-protein kinase Fyn (Homo sapiens, UniProt P06241); format: functional
[11] = molecular target: Non-receptor tyrosine-protein kinase TYK2 (Homo sapiens, UniProt P29597); format: functional
[12] = molecular target: Dual specificity protein kinase CLK4 (Homo sapiens, UniProt Q9HAZ1); format: functional
[13] = molecular target: Dual specificity protein kinase CLK2 (Homo sapiens, UniProt P49760); format: functional
Dual specificity protein kinase CLK2, sequence (P49760 whole entry): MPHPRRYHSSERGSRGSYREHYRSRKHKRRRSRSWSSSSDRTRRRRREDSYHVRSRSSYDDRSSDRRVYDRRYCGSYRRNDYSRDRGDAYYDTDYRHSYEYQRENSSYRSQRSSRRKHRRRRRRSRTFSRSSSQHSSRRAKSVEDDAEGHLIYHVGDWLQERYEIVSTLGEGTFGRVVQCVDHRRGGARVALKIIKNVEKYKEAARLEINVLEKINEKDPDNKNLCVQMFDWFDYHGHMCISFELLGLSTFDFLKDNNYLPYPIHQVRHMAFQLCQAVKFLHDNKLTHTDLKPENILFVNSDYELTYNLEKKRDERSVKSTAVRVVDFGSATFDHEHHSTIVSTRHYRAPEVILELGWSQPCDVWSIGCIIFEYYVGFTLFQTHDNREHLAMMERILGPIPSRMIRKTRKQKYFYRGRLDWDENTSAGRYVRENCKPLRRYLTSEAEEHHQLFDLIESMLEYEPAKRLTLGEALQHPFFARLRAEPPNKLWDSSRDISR

[14] = molecular target: Protein kinase C delta type (Homo sapiens, UniProt Q05655); format: functional
Protein kinase C delta type, sequence (Q05655 whole entry): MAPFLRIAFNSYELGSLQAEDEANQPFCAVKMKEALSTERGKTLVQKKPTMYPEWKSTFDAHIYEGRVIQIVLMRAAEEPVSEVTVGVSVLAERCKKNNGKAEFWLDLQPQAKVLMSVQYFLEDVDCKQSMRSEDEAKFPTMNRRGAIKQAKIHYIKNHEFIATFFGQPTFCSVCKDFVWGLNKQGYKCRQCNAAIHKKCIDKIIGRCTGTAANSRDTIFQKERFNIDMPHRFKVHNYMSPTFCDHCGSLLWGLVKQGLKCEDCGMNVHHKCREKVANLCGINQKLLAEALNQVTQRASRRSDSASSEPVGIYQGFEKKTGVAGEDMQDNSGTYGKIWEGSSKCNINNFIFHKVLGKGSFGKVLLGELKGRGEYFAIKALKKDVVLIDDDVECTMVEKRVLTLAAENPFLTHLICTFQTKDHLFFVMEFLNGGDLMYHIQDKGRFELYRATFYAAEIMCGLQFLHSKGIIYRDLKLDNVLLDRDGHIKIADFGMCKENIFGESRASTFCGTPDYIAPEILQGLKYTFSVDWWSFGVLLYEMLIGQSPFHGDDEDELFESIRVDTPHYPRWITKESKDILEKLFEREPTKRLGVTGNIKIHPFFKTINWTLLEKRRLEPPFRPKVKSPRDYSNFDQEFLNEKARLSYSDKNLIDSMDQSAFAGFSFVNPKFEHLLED

[15] = molecular target: Receptor tyrosine-protein kinase erbB-2 (Homo sapiens, UniProt P04626); experiment: Navigating the Kinome. Panel member name: ERBB2; format: functional
[16] = molecular target: Serine/threonine-protein kinase PLK3 (Homo sapiens, UniProt Q9H4B4); format: functional
Streptokinase A = molecular target: T1, Streptokinase A (Streptococcus pyogenes serotype M1, UniProt P10520); experiment: S. pyogenes streptokinase expression inhibitors, potency, dose response, plasminogen activation absorbance, OD405 (AID 1914); format: functional, Streptococcus pyogenes M1 GAS;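 also: secreted streptokinase activity via plasminogen activation per viability signal from cell pellet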
T1 sequence (P10520 whole entry): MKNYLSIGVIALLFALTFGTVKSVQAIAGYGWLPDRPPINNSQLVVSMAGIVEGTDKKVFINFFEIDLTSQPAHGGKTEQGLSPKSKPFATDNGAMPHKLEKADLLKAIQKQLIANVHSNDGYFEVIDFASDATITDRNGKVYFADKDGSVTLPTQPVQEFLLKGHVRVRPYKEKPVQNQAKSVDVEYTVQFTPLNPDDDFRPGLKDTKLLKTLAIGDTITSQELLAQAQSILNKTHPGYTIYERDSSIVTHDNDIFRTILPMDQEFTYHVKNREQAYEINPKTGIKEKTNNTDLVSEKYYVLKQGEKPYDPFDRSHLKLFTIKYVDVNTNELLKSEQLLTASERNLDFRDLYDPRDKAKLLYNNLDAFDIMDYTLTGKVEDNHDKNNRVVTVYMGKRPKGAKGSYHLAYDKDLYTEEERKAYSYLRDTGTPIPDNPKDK

[17] = Shn3 3'UTR reporter inhibitors, dose response, cell-based, Clone20 osteoblasts, firefly luciferase, cherry-picked (AID 624132); format: functional;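 also: firefly luciferase luminescence from reporter carrying the Shn3 3'UTR in osteoblasts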
[18] = inhibitors of firefly luciferase expression or activity, dose response, H4 neuroglioma cells, luminescence (AID 1990); format: functional, cell-based
[19] = molecular target: T2, Short transient receptor potential channel 4 (Mus musculus, UniProt Q9QUQ5); experiment: mouse TRPC4 channel activators, dose response, cell-based, HEK293 TRPC4/mu-opioid, Fluo-4 calcium (AID 434937); format: functional
T2 sequence (Q9QUQ5 whole entry): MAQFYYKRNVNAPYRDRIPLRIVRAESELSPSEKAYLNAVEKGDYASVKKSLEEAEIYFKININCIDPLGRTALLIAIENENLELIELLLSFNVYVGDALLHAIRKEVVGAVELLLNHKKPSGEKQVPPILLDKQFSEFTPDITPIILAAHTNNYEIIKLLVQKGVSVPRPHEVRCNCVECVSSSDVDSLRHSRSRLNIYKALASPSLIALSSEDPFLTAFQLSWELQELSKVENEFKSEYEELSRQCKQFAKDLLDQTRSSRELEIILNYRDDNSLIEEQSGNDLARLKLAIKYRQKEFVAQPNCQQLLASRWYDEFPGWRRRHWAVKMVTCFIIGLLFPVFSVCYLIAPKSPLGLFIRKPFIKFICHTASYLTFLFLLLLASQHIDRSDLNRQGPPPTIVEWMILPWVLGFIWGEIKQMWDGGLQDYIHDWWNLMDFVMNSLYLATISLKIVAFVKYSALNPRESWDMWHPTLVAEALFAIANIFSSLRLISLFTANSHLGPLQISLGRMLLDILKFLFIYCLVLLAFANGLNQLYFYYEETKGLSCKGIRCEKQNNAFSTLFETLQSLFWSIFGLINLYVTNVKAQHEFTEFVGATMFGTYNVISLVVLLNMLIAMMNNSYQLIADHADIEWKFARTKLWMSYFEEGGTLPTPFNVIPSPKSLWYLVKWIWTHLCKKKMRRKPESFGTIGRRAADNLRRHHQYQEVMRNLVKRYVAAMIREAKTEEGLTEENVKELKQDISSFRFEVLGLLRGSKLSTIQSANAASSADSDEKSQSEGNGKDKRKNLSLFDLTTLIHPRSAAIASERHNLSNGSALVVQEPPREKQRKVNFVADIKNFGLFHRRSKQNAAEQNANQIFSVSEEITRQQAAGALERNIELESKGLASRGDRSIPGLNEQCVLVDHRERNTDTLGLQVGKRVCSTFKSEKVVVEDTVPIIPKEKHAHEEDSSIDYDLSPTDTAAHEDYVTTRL

[20] = inhibitors of SNCA 5'UTR-driven reporter translation, confirmation, H4 neuroglioma cells, luminescence (AID 1988); format: functional, cell-based
[21] = molecular target: T3, Sentrin-specific protease 8 (Homo sapiens, UniProt Q96LD8); format: functional;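 also: luminescence read-out of SENP8 inhibition, dose-response confirmation following an ultra-high-throughput screen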
T3 sequence (Q96LD8 whole entry): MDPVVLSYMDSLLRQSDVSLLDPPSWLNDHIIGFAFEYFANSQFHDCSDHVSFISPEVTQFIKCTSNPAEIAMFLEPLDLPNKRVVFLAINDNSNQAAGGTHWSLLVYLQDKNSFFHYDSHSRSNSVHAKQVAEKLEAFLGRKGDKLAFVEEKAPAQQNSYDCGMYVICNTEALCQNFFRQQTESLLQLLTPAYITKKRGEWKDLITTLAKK

Eukaryotic elongation factor 2 kinase, sequence (O00418 whole entry): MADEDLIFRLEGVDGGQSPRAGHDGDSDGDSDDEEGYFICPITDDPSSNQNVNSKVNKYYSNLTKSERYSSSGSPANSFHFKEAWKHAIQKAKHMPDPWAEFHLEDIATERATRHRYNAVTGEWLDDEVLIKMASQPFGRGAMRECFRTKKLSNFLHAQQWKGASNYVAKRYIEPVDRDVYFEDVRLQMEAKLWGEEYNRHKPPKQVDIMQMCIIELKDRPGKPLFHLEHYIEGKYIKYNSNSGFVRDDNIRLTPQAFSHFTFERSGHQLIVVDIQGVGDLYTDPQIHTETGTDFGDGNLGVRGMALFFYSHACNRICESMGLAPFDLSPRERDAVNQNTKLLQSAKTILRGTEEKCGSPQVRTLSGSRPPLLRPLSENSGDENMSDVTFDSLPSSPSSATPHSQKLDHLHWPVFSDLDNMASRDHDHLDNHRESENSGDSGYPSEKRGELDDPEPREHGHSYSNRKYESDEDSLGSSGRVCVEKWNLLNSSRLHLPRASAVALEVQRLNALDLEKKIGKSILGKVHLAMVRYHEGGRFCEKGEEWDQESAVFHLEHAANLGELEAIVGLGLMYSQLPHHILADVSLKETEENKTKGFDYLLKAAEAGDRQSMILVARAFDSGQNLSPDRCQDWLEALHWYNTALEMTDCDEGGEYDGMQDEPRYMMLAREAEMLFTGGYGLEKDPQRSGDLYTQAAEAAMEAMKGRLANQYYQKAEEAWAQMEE

## O=[N+]([O-])c1c(Nc2ccccn2)cc(Cl)c2nonc12
[1]
  AC50: 1.93 µM (active)

## CC(C)(CO)CNc1nccc(-c2c(-c3ccc(F)cc3)nc3c(CC4CC4)nccn23)n1
[2]
  Ki: > 3.98 µM (inactive)
SRSF protein kinase 1
  Ki: > 7.94 µM (inactive)
[3]
  Ki: > 6.31 µM (inactive)
[4]
  Ki: > 2 µM (inactive)
[5]
  Ki: 7.94 µM (active)
[6]
  Ki: > 7.94 µM (inactive)
[7]
  Ki: > 7.94 µM (inactive)
[8]
  Ki: > 1.26 µM (inactive)
[9]
  Ki: 0.0316 µM (active)
[10]
  Ki: > 0.794 µM (inactive)
[11]
  Ki: > 2 µM (inactive)
[12]
  Ki: 3.98 µM (active)
[13]
  Ki: > 7.94 µM (inactive)
[14]
  Ki: > 7.94 µM (inactive)
[15]
  Ki: > 1.58 µM (inactive)
[16]
  Ki: > 7.94 µM (inactive)

## Cc1ccc(S(=O)(=O)/N=C2\C=C(Nc3cccc(C(=O)O)c3)C(=O)c3ccccc32)cc1
Streptokinase A
  EC50: 47.3 µM (active)

## CC[C@@H](C)[C@H](CNC)NC[C@@H](Cc1cccc2ccccc12)NCCc1cccc(C(F)(F)F)c1
[17]
  AC50: 8.08 µM (active)
[18]
  EC50: 8.36 µM (active)
[19]
  EC50: 9.44 µM (active)
[20]
  EC50: 7.84 µM (active)

## Cc1ccc(C(=O)NC2(O)C(=O)c3ccccc3C2=O)cc1C
[21]
  IC50: 4.89 µM (active)
